# According to patent publication US20030088057A1, “PEPTIDE SUBSTRATES PHOSPHORYLATED BY P21-ACTIVAGED PROTEIN KINASE STATEMENT REGARDING FEDERALLY SPONSORED REASEARCH OR DEVELOPMENT” (priority 1998, published 2003):
# Entries after “also recorded” stand apart in the source; their conditions may differ. Where two headings read alike, the source gives them in different places. No end group written: not given here.
# What was measured:
# [1] = system: γ-PAK; assay: Phosphorylation of protein substrates by γ-PAK; assay type: biochemical, rabbit; details: for substrate for γ-PAK (in words): proteins
# Procedure: (§1) D. Phosphorylation Assays. Phosphorylation of protein substrates was carried out in 35 μL reaction mixtures containing 20 mM Tris-HCl, pH 7.4, 10 mM MgCl2, 30 mM 2-mercaptoethanol, 0.2 mM ATP (specific activity =1000 cpm/pmol), 2 μg of protein substrate, and 20 units of active γ-PAK (an enzyme unit is defined as the amount of enzyme that incorporates 1 pmol of phosphate into histone IIAS/ min at 30°. Under these conditions, phosphate incorporation was linear and initial rates of phosphorylation were measured. After incubation at 30° C. for 15 min, reactions were terminated by the addition of 5 μL of 100 mM nonlabeled ATP and sample buffer for gel electrophoresis [Hathaway, G. M., et al., Methods Enzymol., 60:495-511 (1979)]. Reaction mixtures were subjected to SDS-PAGE on 15% polyacrylamide gels followed by autoradiography. Phosphorylation was quantified by excising the protein band and counting the incorporated ^32P in a liquid scintillation counter. The specific activity of γ-PAK was 400 pmol min^−1 μg^−1 as reported previously using 0.2 mM ATP and 1 mg/mL mixed histone as substrate [Rooney, R. D., et al., (1996), supra].
# A number of proteins were examined as substrates, and their relative rates of phosphorylation were compared (Table 6).
# Target sequence in this assay (Q29502 249-524 limits assumed): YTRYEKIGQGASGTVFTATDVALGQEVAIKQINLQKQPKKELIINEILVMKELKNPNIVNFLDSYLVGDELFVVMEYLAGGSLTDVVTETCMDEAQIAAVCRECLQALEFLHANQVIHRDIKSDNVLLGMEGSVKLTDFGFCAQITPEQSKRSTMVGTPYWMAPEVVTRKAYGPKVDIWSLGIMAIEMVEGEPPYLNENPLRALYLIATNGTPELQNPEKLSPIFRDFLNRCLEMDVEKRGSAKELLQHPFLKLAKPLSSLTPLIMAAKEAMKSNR
# [2] = target: T1, γ-PAK (Oryctolagus cuniculus, UniProt Q29502); assay: Phosphorylation of heptapeptides by Cdc42-activated γ-PAK with ATP(Mg) and ATP(Mn); assay type: biochemical, rabbit; details: γ-PAK 2.5 units, Cdc42(GTPγS)-activated; 10 mM MgCl2 or 6 mM MnCl2
# T1 construct: γ-PAK was purified from rabbit reticulocytes to apparent homogeneity; from tissue; host or cells: rabbit reticulocytes (γ-PAK)
# Procedure: Synthetic heptapeptides were used to examine the activity of γ-PAK with manganese and magnesium. The peptides were incubated with γ-PAK (2.5 units), activated by autophosphorylation in the presence of Cdc42(GTPγS) and 10 mM MgCl2 or 6 mM MnCl2 as described under Experimental Procedures.
# [3] = system: γ-PAK; assay: Kinetic parameters (Km, Vmax) for phosphorylation of synthetic peptides by γ-PAK; assay type: biochemical, rabbit; details: for Km: read-out: Km
# Procedure: (§2) Assays with peptides (I mM) were carried out with γ-PAK (1.6-5.6 units) in 25 μL reaction mixtures incubated for 30 min at 30° C. under conditions described above, except that 0.4 mg/mL of bovine serum albumin was added and the specific activity of ATP was 300-2000 cpm/pmol. Reactions were terminated with 5 μL of 100 mM ATP, and the amount of ^32p incorporated was quantitated by precipitation of 20 μL aliquots on P81 phosphocellulose paper with 75 mM H3PO4 as described previously [Bensen, E. S., et al., Biochim. Biophys. Acta, 1292:249-258 (1996)]. Peptides containing only one basic amino acid were analyzed by thin-layer electrophoresis on cellulose sheets for 2 h at 600 V with pyridine/acetic acid/water (10:100:890), pH 3.5, as solvent, as described previously [Bensen, E. S., et al., supra]. Activation of γ-PAK by autophosphorylation in the presence of Cdc42(GTPγS) was performed as previously described [Jakobi, R., et al., supra]. γ-PAK was also activated by limited digestion with trypsin as described previously [Rooney, R. D., et al., (1996), supra].
# Target sequence in this assay (Q29502 249-500 limits assumed): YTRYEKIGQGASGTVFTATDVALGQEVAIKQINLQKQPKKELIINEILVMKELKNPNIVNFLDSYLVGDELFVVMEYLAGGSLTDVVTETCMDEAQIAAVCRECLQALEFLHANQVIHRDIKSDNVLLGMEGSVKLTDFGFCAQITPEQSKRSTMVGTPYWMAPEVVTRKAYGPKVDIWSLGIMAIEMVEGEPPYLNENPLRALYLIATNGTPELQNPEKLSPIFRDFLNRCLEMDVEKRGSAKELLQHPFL
# [4] = system: γ-PAK; assay: Rates of phosphorylation of synthetic peptides by γ-PAK; assay type: biochemical, rabbit; details: for substrate for γ-PAK (in words): synthetic peptides; for 32P incorporated, %: AKRASAA taken as 100%; for rate of phosphorylation compared to AKRASAA: relative to AKRASAA
# Text: (§3) A. Materials. γ-PAK was purified from rabbit reticulocytes to apparent homogeneity by chromatography on DEAE-cellulose, SP-Sepharose, protamine agarose, and FPLC on Mono S and Mono Q. Histone I (type IIIS), mixed histone (type IIAS), trypsin (L-1-tosylamido-2-phenylethyl chloromethyl ketone treated), soybean trypsin inhibitor, bovine serum albumin (fatty acid free), and myelin basic protein were purchased from Sigma. Purified histones 2B and 4 were purchased from Boehringer-Mannheim. Myosin light chain from rabbit skeletal muscle was a gift from Dr. James Stull, University of Texas Southwestern Medical Center, Dallas, Tex.; rat prolactin was provided by Dr. Ameae Walker, University of California, Riverside, Calif.; and the purified catalytic subunit of cAMP-dependent protein kinase from bovine heart was a gift from Dr. William H. Fletcher, J. L. Pettis Memorial V. A. Hospital, Loma Linda, Calif. Protein kinase C was purified from bovine brain according to the procedure of Walton et al. [Walton, G. M., et al., Anal Biochem., 161:425-437 (1987)], with modifications [Venema, R. C., et al., J. Biol. Chem., 266:5298-5302 (1991)]. The clone for GST-Cdc42 was generously provided by Dr. Channing Der, University of North Carolina, Chapel Hill, N.C. Cellulose thin-layer chromatography sheets were from Kodak.
# as §1, §2
# Target sequence in this assay (Q29502 249-500 limits assumed): as above
# [5] = target: T2, PKA (Bos taurus, UniProt P00517); assay: Rates of phosphorylation of synthetic peptides by PKA; assay type: biochemical, bovine; details: for 32P incorporated: PKA (10.5 units), 0.14 mM ATP; for 32P incorporated, %: PKA, AKRASAA taken as 100%
# T2 construct: the purified catalytic subunit of cAMP-dependent protein kinase from bovine heart was a gift; from tissue; host or cells: bovine heart (gift from Dr. William H. Fletcher)
# Text: as §3, with “Myosin light chain from rabbit skeletal muscle was a gift from Dr. James Stull, University of Texas Southwestern Medical Center, Dallas, Tex.; rat prolactin was provided by Dr. Ameae Walker, University of California, Riverside, Calif.; and the purified catalytic subunit of cAMP-dependent protein kinase from bovine heart was a gift from Dr. William H. Fletcher, J. L. Pettis Memorial V. A. Hospital, Loma Linda, Calif.” left out
# (§4) Reactions with PKA (10.5 units) were carried out under the same conditions as with γ-PAK except that 0.14 mM ATP was used. Reactions with PKC (3.4 units) were performed as with PKA, with the addition of 0.4 mM CaCl2, phosphatidylinositol (15 μg/mL), phosphatidylserine (15 μg/ mL), and 1,2-diolein (3 μg/mL), as described [Tuazon, P. T., et al., (1989), supra]. A unit of PKA or PKC is defined as the amount of enzyme that incorporates 1 pmol of phosphate/min at 30° C. into histone IIAS or histone 1, respectively.
# PKA and PKC are known to require basic amino acids on the N-terminal side of the phosphorylatable serine/ threonine. To distinguish their substrate specificities from that of γ-PAK, the relative rates of phosphorylation were determined with the synthetic peptide substrates using the conditions for γ-PAK, with the addition of Ca^2+ and phospholipids for PKC.
# [6] = system: PKC; assay: Rates of phosphorylation of synthetic peptides by PKC; assay type: biochemical, bovine; details: for 32P incorporated: PKC (3.4 units), with Ca2+ and phospholipids, 0.14 mM ATP; for 32P incorporated, %: PKC, AKRASAA taken as 100%
# Text: as §3, §4
# PKA and PKC are known to require basic amino acids on the N-terminal side of the phosphorylatable serine/ threonine. To distinguish their substrate specificities from that of γ-PAK, the relative rates of phosphorylation were determined with the synthetic peptide substrates using the conditions for γ-PAK, with the addition of Ca^2+ and phospholipids for PKC. The rates shown in Table 5 are calculated with equivalent units of enzyme; the rate of phosphorylation of the peptide AKRASAA (SEQ ID NO:6) is taken as 100% for all three enzymes. As would be expected, PKA preferentially phosphorylated the peptides that contained RR or RK at the −3 and −2 positions and with […] residues or proline at the −4 and −1 positions inhibitory. PKC recognized SKR>RKS>KKS. The most notable difference between γ-PAK and PKA or PKC is the effect of acidic residues on the susceptibility of the peptide to be phosphorylated. An acidic residue in the −1 or −4 position was beneficial for γ-PAK but was detrimental for both PKA and PKC (Table 5). […] In addition, γ-PAK could not tolerate an arginine in the −3 position when lysine was in the −2 position.
# [7] = Table 2, influence of basic amino acids, γ-PAK 1.6 units, ATP 0.2 mM
# [8] = Cdc42(GTPγS)-activated γ-PAK, peptide 1 mM, KKRKSAA = 100
# [9] = proteolytically (trypsin) activated γ-PAK, peptide 1 mM, compared to KKRKSAA = 100
# [10] = proteolytically activated γ-PAK (5.6 units), peptide 1 mM, 30 min at 30° C.
# [11] = Table 3, influence of acidic amino acids
# [12] = γ-PAK, calculated with equivalent units of enzyme
# [13] = Table 4, influence of proline and glycine
# T1 sequence (Q29502 2-524 limits assumed): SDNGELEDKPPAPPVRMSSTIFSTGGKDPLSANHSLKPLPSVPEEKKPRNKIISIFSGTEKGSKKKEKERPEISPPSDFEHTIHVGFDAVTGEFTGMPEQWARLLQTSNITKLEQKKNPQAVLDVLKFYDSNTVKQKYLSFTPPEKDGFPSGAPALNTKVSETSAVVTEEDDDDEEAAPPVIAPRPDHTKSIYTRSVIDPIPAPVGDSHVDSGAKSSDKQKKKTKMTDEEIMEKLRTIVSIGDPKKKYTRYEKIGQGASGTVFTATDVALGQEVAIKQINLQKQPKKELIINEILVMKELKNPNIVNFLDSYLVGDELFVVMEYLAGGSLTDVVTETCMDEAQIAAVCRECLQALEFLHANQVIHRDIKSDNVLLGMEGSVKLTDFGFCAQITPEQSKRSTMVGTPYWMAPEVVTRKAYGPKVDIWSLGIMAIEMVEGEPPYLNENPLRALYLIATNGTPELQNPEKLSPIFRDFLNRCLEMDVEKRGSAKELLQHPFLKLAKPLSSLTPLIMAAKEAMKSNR
Substance,substrate for γ-PAK (in words) [1],"rel rate (%) [4, 8]","rel rate (%) [4, 9]","32P incorporated [4, 10]",substrate for γ-PAK (in words) [4],32P incorporated [5],"32P incorporated, % [5]",overall rate of phosphorylation (Vmax/Km) compared to AKRASAA [3],"Vmax [3, 11]","Km [3, 11]",32P incorporated [6],"32P incorporated, % [6]","32P incorporated, % ([4]; γ-PAK)","32P incorporated [4, 12]",further results
protamine,not a good substrate; also recorded: did not serve as substrates,,,,,,,,,,,,,,"32P incorporated ([1]; 2 μg protein substrate, 20 units active γ-PAK, 15 min at 30° C.): 0 pmol; substrate for γ-PAK (in words) ([1]; listed as Protamine): not substrates; rel rate ([1]; relative to histone 2B = 100): 0%"
cdc42: small G protein; not a substrate for γ-PAK (data not shown),not substrates,,,,,,,,,,,,,,
casein,not substrates,,,,,,,,,,,,,,
AKAASAA (AKAASAA-NH2) [synthetic peptide with an amide C-terminal group],,3%,2%,5 pmol/min/µg,did not serve as substrate; also recorded: could not be phosphorylated,,,,,,,,,,"phosphorylation using ATP(Mg) or ATP(Mn) (in words) [2]: not phosphorylated; Km [3, 7]: > 5000 µM"
EKRASAA (EKRASAA-NH2) [synthetic peptide with an amide C-terminal group],,151%,160%,484 pmol/min/µg,,1.7 pmol/unit,4%,1.3 fold,2.48 pmol/min,890 µM,0.1 pmol/unit,3%,113%,30.2 pmol/unit,increase of Km compared to AKRASAA [3]: 2 fold; Vmax ([3]; text summary b32): 2.48 pmol/min; rate of phosphorylation compared to AKRASAA ([4]; γ-PAK): 113%
AKRASEA (AKRASEA-NH2) [synthetic peptide with an amide C-terminal group],,88%,108%,326 pmol/min/µg,,3.6 pmol/unit,75%,0.7 fold,2.22 pmol/min,1420 µM,0.2 pmol/unit,6%,68%,18.3 pmol/unit,increase of Km compared to AKRASAA [3]: ~3 fold; rate of phosphorylation compared to AKRASAA ([4]; γ-PAK): 71%
AKRASAA (AKRASAA-NH2) [synthetic peptide with an amide C-terminal group],,189%,141%,426 pmol/min/µg,,4.8 pmol/unit,100%,,11.04 pmol/min,460 µM,3.0 pmol/unit,100%,100%,26.8 pmol/unit,"Vmax [3, 7]: 1.04 pmol/min; Km [3, 7]: 460 µM; Vmax [3, 13]: 1.04 pmol/min; Km [3, 13]: 460 µM"
RKKKSAA (RKKKSAA-NH2) [synthetic peptide with an amide C-terminal group],,3%,0%,0 pmol/min/µg,poor substrates,5.4 pmol/unit,,,,,3.1 pmol/unit,94%,0%,0.1 pmol/unit,
PKRASAA (PKRASAA-NH2) [synthetic peptide with an amide C-terminal group],,184%,209%,636 pmol/min/µg,,6.9 pmol/unit,,2 fold,,,8.7 pmol/unit,264%,151%,40.5 pmol/unit,"decrease of Km compared to AKRASAA [3]: ≈ 2 fold; increase of Vmax compared to AKRASAA [3]: no effect; Vmax [3, 13]: 1.10 pmol/min; Km [3, 13]: 240 µM"
AKKASAA (AKKASAA-NH2) [synthetic peptide with an amide C-terminal group],,,,,poor substrates,,,,,,,,,,phosphorylation using ATP(Mg) or ATP(Mn) (in words) [2]: not phosphorylated
